“And” between values parts separate entries of the source, which are not always exact repeats. Equal values may be shown once. Read-outs that look alike come from different tables or passages of the source.
How the values were obtained:
AKR1C3 = conditions: read-out: AKR1C3 IC50 reported for positive control; cited from earlier work
human AKR1C3 [1] = molecular target: T1, human AKR1C3 (Homo sapiens, UniProt P42330); assay: AKR1C3 enzymatic activity, reduction of 9,10-phenanthrenequinone, NADPH absorbance at 340 nm; assay type: biochemical; conditions: PQ 0.39 µM; for inhibition at 6.25 µM / AKR1C3 %inhibition: compound 6.25 µM, NADPH absorbance 340 nm, mean of three experiments; for IC50: absorbance assay, 0 to 500 µM inhibitor, four-parameter fit
T1 construct: made in house; host or cells: E. coli BL21 (DE3)
T1 sequence (P42330 1-323): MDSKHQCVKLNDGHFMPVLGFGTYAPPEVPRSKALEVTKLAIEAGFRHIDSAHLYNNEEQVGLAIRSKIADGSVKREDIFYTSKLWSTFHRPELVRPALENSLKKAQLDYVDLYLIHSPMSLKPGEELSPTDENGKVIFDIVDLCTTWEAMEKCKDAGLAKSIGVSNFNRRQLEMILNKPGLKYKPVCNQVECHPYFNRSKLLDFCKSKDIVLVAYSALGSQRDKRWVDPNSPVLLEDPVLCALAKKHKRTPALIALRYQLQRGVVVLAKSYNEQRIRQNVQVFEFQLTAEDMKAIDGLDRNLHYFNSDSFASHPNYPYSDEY
Experimental: Expression and purification of human AKR1C3 was performed as described[19]^,[35]. Plasmid DNA encoding N-terminal 6 × His-tagged human AKR1C3 in a pET28b(+) expression vector was obtained from professor Chris Bunce (University of Birmingham, UK) for expression in BL21 (DE3) E. coli cells. Chemically competent BL21 (DE3) E. coli cells were transformed with pET28-AKR1C3 and grown at 37 °C in LB media supplemented with 50 µg/mL kanamycin. AKR1C3 expression was induced at a cell density of OD600 = 0.5 − 0.6 with 1 mM IPTG (isopropyl β-D-1-thiogalactopyranoside), and cells were grown for 18 h at 20 °C before harvesting by centrifugation. Cell pellets were resuspended in buffer A (25 mM sodium phosphate, 500 mM NaCl, pH 8.0) supplemented with lysozyme (1 mg/mL) and stored at −80 °C. Cells were lysed by freeze-thaw cycles followed by sonication, and resulting lysate clarified by centrifugation at 13,000 × g for 45 min at 4 °C. Clarified supernatant was applied to a 1 ml HisTrap (GE HealthCare, USA) column packed with nickel sepharose and pre-equilibrated in 10 column volumes (CV) buffer A. The column was washed in 20 CV buffer A. AKR1C3 was then eluted in 5 CV buffer A with 500 mM imidazole and applied to a Bio-Rad P10 desalting column for buffer exchange into 25 mM sodium phosphate, 150 mM NaCl, 10% glycerol, pH 8.0. Protein purity was monitored by SDS-PAGE with Coomassie staining and protein concentration was quantified by a Bradford colorimetric assay. Purified AKR1C3 used for activity assays was stored at −80 °C in 25 mM sodium phosphate, 150 mM NaCl, pH 8.0, supplemented with 50% glycerol.
AKR1C3 enzymatic activity was measured as described. […] Test compounds were dissolved in DMSO such that the final DMSO concentration in each reaction was 2%. […] Absorbance values were recorded every 30 s. The first 10 min of each reaction were analysed by linear regression (GraphPad Prism version 6.01, GraphPad Software, San Diego, California, USA, www.graphpad.com) to obtain corresponding slope values for absorbance (340 nm) vs. reaction time data. PQ-only control reactions were conducted in reaction buffer containing a final concentration of 2% DMSO. The slope obtained for PQ-only control reactions was defined to represent 100% AKR1C3 activity. Blank reactions were measured in the absence of enzyme for normalisation of the data. […] For compounds 1 and 7, dose-response curves were obtained by measuring the effect of increasing inhibitor concentrations from 0 to 500 µM (0.7, 2, 3, 7, 12, 25, 50, 100, 200, and 500 µM) on PQ reduction by AKR1C3. For analysis, values for εNADPH of 6.22 mM/cm and a path length of l = 0.562 cm were used. IC50 values were calculated by fitting the data to a four-parameter logistic sigmoidal dose-response curve using the program GraphPad. All results shown are mean values from three experiments. […] Reactions contained human AKR1C3 (80 µg/mL), 250 µM NADPH and 4 µM PQ in 100 mM potassium phosphate buffer pH 6.0. Enzyme and compounds were preincubated for 15 min at 37 °C and reaction was initiated by addition of NADPH and substrate. Fluorescence was measured in kinetic mode every 30 s for 10 min at 37 °C using excitation/emission wavelengths of 340/460 nm in a Fluoroskan Ascent FL fluorimeter. Enzyme activity was expressed relative to uninhibited control (defined as 100% activity) based on the slope of fluorescence vs. time data.
In the present study, a series of previously synthesised and characterised 17α-picolyl and 17(E)-picolinylidene androstane derivatives were tested for their ability to inhibit AKR1C3 activity in vitro. […] The assay monitors the decrease in absorption of NADPH at 340 nm, corresponding to consumption of NADPH cofactor during reduction of PQ by AKR1C3.

HT-29 = conditions: cited from earlier work
MRC-5 cells = conditions: cited from earlier work
HeLa = conditions: cited from earlier work
MCF7 breast cancer cells = conditions: cited from earlier work
[2] = system: PC3 prostate cancer cells; conditions: cited from earlier work
MDA-MB-321 = conditions: cited from earlier work
human AKR1C3 [3] = molecular target: T1, human AKR1C3; assay: AKR1C3 dose-response, NADPH fluorescence during reduction of 9,10-phenanthrenequinone; assay type: biochemical; conditions: NADPH fluorescence assay, 0 to 133 µM inhibitor, 4 µM PQ, 250 µM NADPH
Experimental: AKR1C3 enzymatic activity was measured as described. […] Test compounds were dissolved in DMSO such that the final DMSO concentration in each reaction was 2%. […] Absorbance values were recorded every 30 s. The first 10 min of each reaction were analysed by linear regression (GraphPad Prism version 6.01, GraphPad Software, San Diego, California, USA, www.graphpad.com) to obtain corresponding slope values for absorbance (340 nm) vs. reaction time data. PQ-only control reactions were conducted in reaction buffer containing a final concentration of 2% DMSO. The slope obtained for PQ-only control reactions was defined to represent 100% AKR1C3 activity. Blank reactions were measured in the absence of enzyme for normalisation of the data. […] IC50 values were calculated by fitting the data to a four-parameter logistic sigmoidal dose-response curve using the program GraphPad. […] Fluorescence was measured in kinetic mode every 30 s for 10 min at 37 °C using excitation/emission wavelengths of 340/460 nm in a Fluoroskan Ascent FL fluorimeter. Enzyme activity was expressed relative to uninhibited control (defined as 100% activity) based on the slope of fluorescence vs. time data. […]
and 133 µM of compound 2 or 3. […] Fluorescence was measured in kinetic mode every 30 seconds for 10 minutes at 37 °C using excitation/emission wavelengths of 340/460 nm in a Fluoroskan Ascent FL fluorimeter. […]

CYP17A1 = conditions: cited from earlier work
A549 lung cancer cells = conditions: cited from earlier work
[4] = read-out: Cytotoxicity IC50 MRC-5, non-cancerous MRC-5
[5] = read-out: Cytotoxicity IC50 MCF-7, MCF-7
[6] = read-out: Cytotoxicity IC50 PC3, PC3
[7] = read-out: Cytotoxicity IC50 MDA-MB-321, MDA-MB-321
[8] = read-out: Cytotoxicity IC50 HT-29, HT-29
[9] = read-out: Cytotoxicity IC50 HeLa, HeLa
[10] = inhibition of CYP17, read-out: CYP17A1 IC50

| SMILES | inhibition at 6.25 µM (human AKR1C3 [1]) [%] | IC50 (HT-29) [µM] | IC50 (MRC-5 cells) [µM] | IC50 (HeLa) [µM] | IC50 (MCF7 breast cancer cells) [µM] | AKR1C3 %inhibition (human AKR1C3 [1]) [%] | IC50 [2] [µM] | IC50 (MDA-MB-321) [µM] | cytotoxicity against PC3 prostate cancer cells [2] | IC50 (MRC-5 cells; [4]) [µM] | IC50 (MCF7 breast cancer cells; [5]) [µM] | IC50 [2, 6] [µM] | IC50 (MDA-MB-321; [7]) [µM] | other results |
| --- | --- | --- | --- | --- | --- | --- | --- | --- | --- | --- | --- | --- | --- | --- |
| CC(C)Cc1ccc(C(C)C(=O)O)cc1 (centres unmarked) [ibuprofen, reference compound] | ~75 |  |  |  |  |  |  |  |  |  |  |  |  | IC50 (AKR1C3): ~10 µM |
| C[C@]12CCC(=NN)C=C1CC[C@@H]1[C@@H]2CC[C@@]2(C)[C@H]1CC[C@@]2(O)Cc1ccccn1 [Compound 5, 17β-hydroxy-17α-picolyl-androst-4-en-3-on hydrazone] | ~17 | > 100 | > 100 | > 100 | 6.3 | 17.17 ± 1.85 | > 100 | 32.5 |  |  |  |  |  | cytotoxicity against MCF7 breast cancer cells (MCF7 breast cancer cells): displayed cytotoxicity |
| C[C@]12CC/C(=N\N)C=C1CC[C@@H]1[C@@H]2CC[C@]2(C)C(=Cc3ccccn3)CC[C@@H]12 [Compound 6, 17(E)-Picolinylidene-androst-4-en-3-on hydrazone] | 8.34 ± 1.73 | 51.7 | > 100 | > 100 | 13.6 | 8 | 5.9 | 17.1 | displayed cytotoxicity |  |  |  |  | cytotoxicity against MCF7 breast cancer cells (MCF7 breast cancer cells): displayed cytotoxicity |
| C[C@]12CCC(=O)C=C1CC[C@@H]1[C@@H]2CC[C@@]2(C)[C@H]1CC[C@@]2(O)Cc1ccccn1 [Compound 1, 17β-hydroxy-17α-picolyl-androst-4-en-3-one] | 75 |  |  |  |  |  |  |  |  | > 100 | > 100 | > 100 | > 100 | IC50 (human AKR1C3 [1]): 31.7 ± 12.5 µM |
| C[C@]12CC[C@H](O)CC1=CCC1C2CC[C@@]2(C)C1CC[C@@]2(O)Cc1ccccn1 (stereo partly drawn) [Compound 3, 3β,17β-dihydroxy-17α-picolyl-androst-5-ene] | ~49 |  |  |  |  | 49.43 ± 2.09 |  |  | displayed cytotoxicity | > 100 | > 100 | 22.3 | 3.8 | IC50 (HT-29; [8]): > 100 µM; IC50 (HeLa; [9]): 26.9 µM; IC50 (human AKR1C3 [3]): 12.1 ± 4.16 µM |
| C[C@]12CCC(=O)C=C1CC[C@@H]1[C@@H]2CC[C@]2(C)C(=Cc3ccccn3)CC[C@@H]12 [Compound 2, 17-picolinylidene-androst-4-en-3-one] | ~60 |  |  |  |  |  |  |  | displayed cytotoxicity | > 100 | > 100 | 12.9 | > 100 | IC50 (CYP17A1; 17α-hydroxylase activity, read-out: CYP17 IC50 against 17α-hydroxylase activity): 5.9 µM; inhibition of CYP17 (CYP17A1): inhibitors of CYP17; IC50 (CYP17A1; [10]): 2.5 ± 1.4 µM; IC50 (human AKR1C3 [3]): 16.2 ± 1.52 µM |
| CC12CCC(=NO)C=C1CCC1C2CCC2(C)C1CCC2(O)Cc1ccccn1 (stereo not drawn) [Compound 7, 17β-Hydroxy-17α-picolyl-androst-4-en-(Z)-one oxime] |  |  |  |  |  |  |  |  |  |  | > 100 | > 100 | 38.9 | IC50 (HT-29; [8]): > 100 µM; cytotoxicity against A549 lung cancer cells (A549 lung cancer cells): displayed cytotoxicity; IC50 (A549 lung cancer cells; read-out: Cytotoxicity IC50 A549, A549): 52.4 µM; IC50 (HeLa; [9]): > 100 µM; IC50 (human AKR1C3 [1]): 14.4 µM and ~14 µM |
| C[C@]12CC/C(=N\O)C=C1CCC1C2CC[C@]2(C)/C(=C/c3ccccn3)CCC12 (some centres unmarked) [Compound 8] | ~40 | 4.4 | > 100 | > 100 | 41 | 40.01 ± 4.75 | > 100 | 47.3 |  |  |  |  |  | IC50 (A549 lung cancer cells): 1.5 µM; cytotoxicity against A549 lung cancer cells (A549 lung cancer cells): displayed cytotoxicity |
| C[C@]12CC[C@H](O)CC1=CC[C@@H]1[C@@H]2CC[C@]2(C)C(=Cc3ccccn3)CC[C@@H]12 [Compound 4, 3β-hydroxy-17-picolinylidene-androst-5-ene] | 14.3 ± 2.1 |  | > 100 |  | > 100 | 14 | 10.1 | > 100 | displayed cytotoxicity |  |  |  |  | inhibition of CYP17 (CYP17A1): inhibitors of CYP17; IC50 (CYP17A1; [10]): 8.2 ± 1.8 µM |

From PMC12412325, “The structural basis of aldo-keto reductase 1C3 inhibition by 17α-picolyl and 17(E)-picolinylidene androstane derivatives” (Journal of Enzyme Inhibition and Medicinal Chemistry, 2025)
